Measured values published in article PMC7775894 (Bioorganic chemistry, 2020).
≈ marks a conversion by molar mass, not a printed value. Where “and” joins values, the source holds several entries; their conditions need not be identical. Identical values can stand only once. Like-named read-outs stand apart in the source and are kept apart here.

What was measured:
M. tb H37Rv strain [1] = assay: Microplate alamarBlue assay; format: cell-based, Mycobacterium tuberculosis
XDR M. tb strains = assay: microbe, parasite or virus in culture; format: cell-based; conditions: Mycobacterium tuberculosis, read-out: MIC against XDR M. tb strains
DS- and DR-TB [2] = assay: MIC against both DS- and DR-TB as stated in text; conditions: Mycobacterium tuberculosis, read-out: MIC against both DS- and DR-TB
physchem = conditions: water, kinetic from dmso stock
M. tb V4207/DS = assay: microbe, parasite or virus in culture; format: cell-based; conditions: Mycobacterium tuberculosis, read-out: M. tb MIC V4207/DS
Vero cells = assay: Cytotoxicity on Vero cells; format: cell-based; conditions: SI = IC50(Vero)/MIC(H37Rv)
[3] = system: Mycobacterium abscessus (M. abs); assay: MABA MIC against M. abs; format: cell-based; conditions: for MIC: Mycobacteroides abscessus, read-out: M. abs MIC
[4] = system: Mycobacterium avium (M. avium); assay: MABA MIC against M. avium; format: cell-based; conditions: for MIC: Mycobacterium avium, read-out: M. avium MIC
DS- and DR-TB [5] = conditions: cited from earlier work
[6] = cited from earlier work
[7] = cited from earlier work; remark: listed apart in the source
M. tb H37Rv strain [8] = conditions: cited from earlier work
[9] = Mycobacterium tuberculosis, H37RV
[10] = M. tb H37Rv, MABA, at least 90% growth inhibition, average of three measurements

SMILES	MIC (M. tb H37Rv strain [1]; [9]) [µM]	MIC (M. tb V4207/DS) [µM]	Selectivity index (SI) (Vero cells)	MIC [3] [µM]	MIC [4] [µM]	other results
Cc1ccc2[nH]c(C(=O)NC34CC5CC(CC(O)(C5)C3)C4)cc2c1 [8g, N-(3-hydroxyadamantan-1-yl)-5-methyl-1H-indole-2-carboxamide]	24.7 (≈ 8.01 µg/mL)					
O=C(Nc1nc2ccccc2[nH]1)C12CC3CC(CC(C3)C1)C2 [13a, N-(1H-benzo[d]imidazol-2-yl)adamantane-1-carboxamide]	13.5 (≈ 3.99 µg/mL)					
O=C(Nc1nc2ccccc2[nH]1)NC12CC3CC(CC(C3)C1)C2 [compound 12, 1-(1-adamantyl)-3-(1H-benzo[d]imidazol-2-yl)urea]	25.8 (≈ 8.01 µg/mL)					
O=C(NC12CC3CC(CC(C3)C1)C2)c1cc2c(F)cc(F)cc2[nH]1 [8k, N-(1-Adamantyl)-4,6-difluoro-1H-indole-2-carboxamide]	0.024 (≈ 0.00793 µg/mL)	0.024 (≈ 0.00793 µg/mL)	≥8205	> 194	> 194	MIC (XDR M. tb strains): 0.012 µM (≈ 0.00396 µg/mL); MIC (DS- and DR-TB [2]): 0.012 to 0.024 µM (≈ 0.00396 to 0.00793 µg/mL); solubility kinetic (physchem): 7 µg/mL (≈ 21.2 µM)
COc1cccc2[nH]c(C(=O)NC34CC5CC(CC(C5)C3)C4)cc12 [8b, N-(1-Adamantyl)-4-methoxy-1H-indole-2-carboxamide]	0.096 (≈ 0.0311 µg/mL)	0.096 (≈ 0.0311 µg/mL)	≥2048	12.3 (≈ 3.99 µg/mL)	> 197	solubility kinetic (physchem): 5 µg/mL (≈ 15.4 µM); M. avium MIC ([4]; MABA): >197 µM
COc1nc2ccc(Br)cc2cc1[C@@H](c1ccccc1)[C@@](O)(CCN(C)C)c1cccc2ccccc12 [bedaquiline]						MIC against both DS- and DR-TB (DS- and DR-TB [5]): 0.11 µM (≈ 0.0611 µg/mL); logP [6]: > 7
O=C(Nc1cc(Cl)cc(Cl)c1)NC12CC3CC(CC(O)(C3)C1)C2 [10b, 1-(3,5-dichlorophenyl)-3-(3-hydroxyadamantan-1-yl)urea]	> 90					
O=C(NC12CC3CC(CC(O)(C3)C1)C2)c1cc2c(F)cc(F)cc2[nH]1 [8l, 4,6-difluoro-N-(3-hydroxyadamantan-1-yl)-1H-indole-2-carboxamide]		2.89 (≈ 1 µg/mL)	32	> 185	> 185	solubility kinetic (physchem): 19 µg/mL (≈ 54.9 µM)
O=C(Nc1cc(Cl)cc(Cl)c1)NC12CC3CC(CC(C3)C1)C2 [10a, 1-(1-Adamantyl)-3-(3,5-dichlorophenyl)urea]		1.47 (≈ 0.499 µg/mL)	4.0	> 189	47.2 (≈ 16 µg/mL)	M. abs MIC ([3]; MABA): >189 µM
O=C(NC12CC3CC(CC(C3)C1)C2)c1cc2c(Cl)cc(Cl)cc2[nH]1 [compound 2, N-(1-adamantyl)-4,6-dichloroindole-2-carboxamide]						in vivo activity ([7]; due to poor bioavailability): inactive in vivo; in vivo activity ([7]; likely due to poor bioavailability): inactive in vivo; MIC (M. tb H37Rv strain [8]; ref 45): 0.011 μM and 0.011 [45] μM
COc1cccc2[nH]c(C(=O)NC34CC5CC(CC(O)(C5)C3)C4)cc12 [8c, N-(3-hydroxyadamantan-1-yl)-4-methoxy-1H-indole-2-carboxamide]	11.7 (≈ 3.98 µg/mL)					solubility kinetic (physchem): 30 µg/mL (≈ 88.1 µM)
O=C(Nc1ccc(F)c(F)c1F)NC1C2CC3CC(C2)CC1C3 (centres unmarked) [compound 4]						MIC (M. tb H37Rv strain [8]; ref 26, 43): 0.03–0.3 [26, 43] μM
O=C(NC12CC3CC(CC(O)(C3)C1)C2)c1cc2cc(Cl)ccc2[nH]1 [8h, 5-chloro-N-(3-hydroxyadamantan-1-yl)-1H-indole-2-carboxamide]	> 93					MIC (M. tb H37Rv strain [1]; [10]): >93 µM
Cc1ccc2[nH]c(C(=O)NC34CC5CC(CC(C5)C3)C4)cc2c1 [8f, N-(1-Adamantyl)-5-methyl-1H-indole-2-carboxamide]	0.2 (≈ 0.0617 µg/mL)	0.2 (≈ 0.0617 µg/mL)	≥1024	> 207	> 207	
O=C(NC12CC3CC(CC(O)(C3)C1)C2)c1cc2ccc(Br)cc2[nH]1 [8i, 6-bromo-N-(3-hydroxyadamantan-1-yl)-1H-indole-2-carboxamide]	1.32 to 2.89 (≈ 0.514 to 1.13 µg/mL)	5.14 (≈ 2 µg/mL)	32	> 164	> 164	
O=C(NC12CC3CC(CC(O)(C3)C1)C2)c1cc2ccccc2[nH]1 [8a, N-(3-hydroxyadamantan-1-yl)-1H-indole-2-carboxamide]	51.5 (≈ 16 µg/mL)					
O=C(NC12CC3CC(CC(O)(C3)C1)C2)c1cc2c(Cl)cc(Cl)cc2[nH]1 [8j, 4,6-dichloro-N-(3-hydroxyadamantan-1-yl)-1H-indole-2-carboxamide]		1.32 (≈ 0.501 µg/mL)	≥128	> 169	> 169	MIC (XDR M. tb strains): 0.66 µM (≈ 0.25 µg/mL); MIC (M. tb H37Rv strain [1]; [10]): 1.32 µM (≈ 0.501 µg/mL)
COc1ccc2[nH]c(C(=O)NC34CC5CC(CC(O)(C5)C3)C4)cc2c1 [8e, N-(3-hydroxyadamantan-1-yl)-5-methoxy-1H-indole-2-carboxamide]	47 (≈ 16 µg/mL)					
COc1ccc2[nH]c(C(=O)NC34CC5CC(CC(C5)C3)C4)cc2c1 [8d, N-(1-Adamantyl)-5-methoxy-1H-indole-2-carboxamide]	0.77 (≈ 0.25 µg/mL)	0.39 to 0.77 (≈ 0.127 to 0.25 µg/mL)	≥256	> 197	> 197	
CC1(C)CCC(NC(=O)c2cc3c(Cl)cc(Cl)cc3[nH]2)CC1 [compound 1]						MIC (M. tb H37Rv strain [8]; ref 23): 0.015 [23] μM
O=C(CC12CC3CC(CC(C3)C1)C2)Nc1nc2ccccc2[nH]1 [13b, 2-(1-Adamantyl)-N-(1H-benzo[d]imidazol-2-yl)acetamide]	> 103					MIC (M. tb H37Rv strain [1]; [10]): >103 µM
